In brackets after ≈: the same amount, converted by molar mass. Non-standard residues stand in square brackets, D forms with d. Residues, ends and D or L forms follow the SMILES beside them. *: point of attachment. X1 = O=C(O)c1cc(C(=O)*)ccc1-c1c2ccc(=O)cc-2oc2cc(O)ccc12; Pro(trans-4-guanidino) = N=C(N)N[C@H]1CN[C@H](C(=O)O)C1; Propyl(3-guanidino) = N=C(N)NCCC*; Hyp = O=C(O)[C@@H]1C[C@@H](O)CN1; Isobutyl = CC(C)C*
Tests used:
S. aureus NRS 382 = conditions: NRS 382
S. epidermidis NRS 101 = conditions: NRS 101
E. coli 21922 = conditions: 21922
P. aeruginosa 31041 = conditions: 31041
P. aeruginosa 31040 = conditions: 31040
L. monocytogenes 191112 = conditions: 191112
S. typhimurium LT2 = conditions: LT2
S. aureus NRS 384 = conditions: NRS 384
E. faecium 700221 = conditions: 700221
S. flexneri 1a = assay: MIC, broth microdilution (CLSI); format: cell-based; conditions: enteric pathogens
Experimental: (§1) The minimum inhibitory concentration (MIC) of the peptides (in uM/ml) and control antibiotics (vancomycin and gentamicin) in μg/mL, were determined using the broth microdilution method according to the guidelines of the Clinical and Laboratory Standards Institute (CLSI) guidelines. See CLSI. 2007. Methods for dilution antimicrobial susceptibility tests for bacteria that grow aerobically; approved standard M7-A7. CLSI, Wayne, Pa.

S. aureus RN 4220 = assay: MIC, broth microdilution (CLSI); format: cell-based
Experimental: as §1

P. aeruginosa 48982 = conditions: 48982
A. baumannii 1747 = conditions: 1747
K. pneumoniae 1706 = conditions: 1706
S. aureus NRS 383 = conditions: NRS 383
A baumannii 19606 = conditions: 19606
A. baumannii 1605 = conditions: 1605
S. aureus ATCC 6538 = conditions: ATCC 6538
P. aeruginosa 50573 = conditions: 50573
E. cloacae 1134 = conditions: 1134

Row | Structure (SMILES) | MIC (S. aureus NRS 382) [µM] | MIC (S. epidermidis NRS 101) [µM] | MIC (E. coli 21922) [µM] | MIC (P. aeruginosa 31041) [µM] | MIC (P. aeruginosa 31040) [µM] | MIC (L. monocytogenes 191112) [µM] | MIC (S. enteritidis) [µM] | MIC (S. typhimurium LT2) [µM] | MIC (S. aureus NRS 384) [µM] | MIC (E. faecium 700221) [µM] | MIC (P. aeruginosa 48982) [µM] | MIC (K. pneumonia NR 41928) [µM] | MIC (A. baumannii 1747) [µM] | MIC (K. pneumoniae 1706) [µM] | MIC (S. aureus NRS 383) [µM] | MIC (A baumannii 19606) [µM] | MIC (A. baumannii 1605) [µM] | MIC (S. aureus ATCC 6538) [µM] | MIC (P. aeruginosa 50573) [µM] | MIC (K. pneumonia NR 41920) [µM] | further results
1 | CC(C)CO[C@@H]1C[C@@H](C(=O)N2C[C@H](NC(=N)N)C[C@H]2C(=O)N2C[C@H](NC(=N)N)C[C@H]2C(=O)N2C[C@H](OCC(C)C)C[C@H]2C(=O)N2C[C@H](NC(=N)N)C[C@H]2C(=O)N2C[C@H](NC(=N)N)C[C@H]2C(=O)N2C[C@H](OCC(C)C)C[C@H]2C(=O)N2C[C@H](NC(=N)N)C[C@H]2C(=O)N2C[C@H](NC(=N)N)C[C@H]2C(=O)N2C[C@H](OCC(C)C)C[C@H]2C(=O)N2C[C@H](NC(=N)N)C[C@H]2C(=O)N2C[C@H](NC(=N)N)C[C@H]2C(=O)N2C[C@H](OCC(C)C)C[C@H]2C(N)=O)N(C(=O)CNC(=O)c2ccc(-c3c4ccc(=O)cc-4oc4cc(O)ccc34)c(C(=O)O)c2)C1 [Example 1] (X1-G[Hyp](Isobutyl)[Pro(trans-4-guanidino)][Pro(trans-4-guanidino)][Hyp](Isobutyl)[Pro(trans-4-guanidino)][Pro(trans-4-guanidino)][Hyp](Isobutyl)[Pro(trans-4-guanidino)][Pro(trans-4-guanidino)][Hyp](Isobutyl)[Pro(trans-4-guanidino)][Pro(trans-4-guanidino)][Hyp](Isobutyl)-NH2) | 2 (≈ 5.02 µg/mL) | 1 (≈ 2.51 µg/mL) | 1 (≈ 2.51 µg/mL) | 2 (≈ 5.02 µg/mL) | 2 (≈ 5.02 µg/mL) | 2 (≈ 5.02 µg/mL) | 1 (≈ 2.51 µg/mL) | 1 (≈ 2.51 µg/mL) | 2 (≈ 5.02 µg/mL) | 1 (≈ 2.51 µg/mL) | 4 (≈ 10 µg/mL) | 1 (≈ 2.51 µg/mL) | 0.5 (≈ 1.26 µg/mL) | 8 (≈ 20.1 µg/mL) | 2 (≈ 5.02 µg/mL) | 1 (≈ 2.51 µg/mL) | 0.5 (≈ 1.26 µg/mL) | 1 (≈ 2.51 µg/mL) | 2 (≈ 5.02 µg/mL) | 4 (≈ 10 µg/mL) | MIC (S. flexneri 1a): 1 µM (≈ 2.51 µg/mL); MIC (S. aureus RN 4220): 2 µM (≈ 5.02 µg/mL); MIC (VRSA 5): 2 µM (≈ 5.02 µg/mL); MIC (VRSA 10): 2 µM (≈ 5.02 µg/mL); MIC (E. cloacae 1134): 2 µM (≈ 5.02 µg/mL)
2 | CC(C)CO[C@@H]1C[C@@H](C(=O)N2C[C@H](OCCCNC(=N)N)C[C@H]2C(=O)N2C[C@H](OCCCNC(=N)N)C[C@H]2C(=O)N2C[C@H](OCC(C)C)C[C@H]2C(=O)N2C[C@H](OCCCNC(=N)N)C[C@H]2C(=O)N2C[C@H](OCCCNC(=N)N)C[C@H]2C(=O)N2C[C@H](OCC(C)C)C[C@H]2C(=O)N2C[C@H](OCCCNC(=N)N)C[C@H]2C(=O)N2C[C@H](OCCCNC(=N)N)C[C@H]2C(=O)N2C[C@H](OCC(C)C)C[C@H]2C(=O)N2C[C@H](OCCCNC(=N)N)C[C@H]2C(=O)N2C[C@H](OCCCNC(=N)N)C[C@H]2C(=O)N2C[C@H](OCC(C)C)C[C@H]2C(N)=O)N(C(=O)CNC(=O)c2ccc(-c3c4ccc(=O)cc-4oc4cc(O)ccc34)c(C(=O)O)c2)C1 [Example P14-LRR] (X1-G[Hyp](Isobutyl)[Hyp](Propyl(3-guanidino))[Hyp](Propyl(3-guanidino))[Hyp](Isobutyl)[Hyp](Propyl(3-guanidino))[Hyp](Propyl(3-guanidino))[Hyp](Isobutyl)[Hyp](Propyl(3-guanidino))[Hyp](Propyl(3-guanidino))[Hyp](Isobutyl)[Hyp](Propyl(3-guanidino))[Hyp](Propyl(3-guanidino))[Hyp](Isobutyl)-NH2; N-terminus and C-terminus assumed) | 32 (≈ 95.2 µg/mL) | 2 (≈ 5.95 µg/mL) | 4 (≈ 11.9 µg/mL) | 32 (≈ 95.2 µg/mL) | 32 (≈ 95.2 µg/mL) | 8 (≈ 23.8 µg/mL) | 4 (≈ 11.9 µg/mL) | 16 (≈ 47.6 µg/mL) | 16 (≈ 47.6 µg/mL) | 2 (≈ 5.95 µg/mL) | 32 (≈ 95.2 µg/mL) | >32 | 1 (≈ 2.98 µg/mL) | >32 | 32 (≈ 95.2 µg/mL) | 2 (≈ 5.95 µg/mL) | 1 (≈ 2.98 µg/mL) | 16 (≈ 47.6 µg/mL) | 16 (≈ 47.6 µg/mL) | 32 (≈ 95.2 µg/mL) | MIC (E. cloacae 1134): 32 µM (≈ 95.2 µg/mL)

Reference: US10875895B2, “Antibacterial cell-penetrating peptides” (Purdue Research Foundation, priority 2018, dated 2020)
